Measured values published in patent publication US7429585B2, “Phenyl-piperazine methanone derivatives, substituted by heterocyclic groups” (Hoffmann-La Roche, priority 2004, dated 2008).

Target: T1, mGlyT-1b (Mus musculus, UniProt P28571)
T1 construct: host or cells: Flp-in-CHO
T1 sequence (P28571 1-651 isoform P28571-2): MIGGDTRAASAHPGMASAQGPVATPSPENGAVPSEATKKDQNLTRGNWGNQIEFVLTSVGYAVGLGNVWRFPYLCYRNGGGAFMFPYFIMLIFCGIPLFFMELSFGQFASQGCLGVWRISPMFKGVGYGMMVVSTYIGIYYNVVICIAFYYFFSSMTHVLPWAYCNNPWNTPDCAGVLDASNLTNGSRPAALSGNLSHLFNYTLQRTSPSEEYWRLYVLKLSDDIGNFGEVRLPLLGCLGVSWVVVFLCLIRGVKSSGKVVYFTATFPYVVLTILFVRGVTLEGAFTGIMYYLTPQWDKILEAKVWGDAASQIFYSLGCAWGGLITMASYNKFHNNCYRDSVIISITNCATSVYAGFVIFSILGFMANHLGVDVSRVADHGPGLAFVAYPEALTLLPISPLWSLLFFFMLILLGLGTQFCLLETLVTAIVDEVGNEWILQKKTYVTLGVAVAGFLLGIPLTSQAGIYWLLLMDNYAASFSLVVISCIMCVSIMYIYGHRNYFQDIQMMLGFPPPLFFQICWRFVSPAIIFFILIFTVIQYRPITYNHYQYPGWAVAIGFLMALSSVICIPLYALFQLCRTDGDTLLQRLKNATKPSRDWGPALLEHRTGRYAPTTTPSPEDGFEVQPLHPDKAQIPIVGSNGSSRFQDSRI
Experiment: Glycine uptake inhibition assay (mGlyT-1b)
Type: cell-based
Conditions: inhibition of [3H]-glycine uptake in Flp-in-CHO cells transfected with mGlyT-1b cDNA
Method: DMEM complete medium: Nutrient mixture F-12 (Gibco Life-technologies), fetal bovine serum (FBS) 5%, (Gibco life technologies), Penicillin/Streptomycin 1% (Gibco life technologies), Hygromycin 0.6 mg/ml (Gibco life technologies), Glutamine 1 mM Gibco life technologies)
Uptake buffer (UB): 150 mM NaCl, 10 mM Hepes-Tris, pH 7.4, 1 mM CaCl2, 2.5 mM KCl, 2.5 mM MgSO4, 10 mM (+) D-glucose. Flp-in™-CHO (Invitrogen Cat n° R758-07)cells stably transfected with mGlyT1b cDNA.
Glycine Uptake Inhibition Assay (mGlyT-1b)
On day 1 mammalian cells, (Flp-in™-CHO), transfected with mGlyT-1b cDNA, were plated at the density of 40,000 cells/well in complex F-12 medium, without hygromycin in 96-well culture plates. On day 2, the medium was aspirated and the cells were washed twice with uptake buffer (UB). The cells were then incubated for 20 min at 22° C. with either (i) no potential competitor, (ii) 10 mM non-radioactive glycine, (iii) a concentration of a potential inhibitor. A range of concentrations of the potential inhibitor was used to generate data for calculating the concentration of inhibitor resulting in 50% of the effect (e.g. IC50, the concentration of the competitor inhibiting glycine uptake of 50%). A solution was then immediately added containing [^3H]-glycine 60 nM (11-16 Ci/mmol) and 25 μM non-radioactive glycine. The plates were incubated with gentle shaking and the reaction was stopped by aspiration of the mixture and washing (three times) with ice-cold UB. The cells were lysed with scintillation liquid, shaken 3 hours and the radioactivity in the cells was counted using a scintillation counter.

Row | IC50 [nM] | SMILES
1 | 399 | CS(=O)(=O)c1ccc(OC2CCCC2)c(C(=O)N2CCN(c3ccc4cc(Cl)ccc4n3)CC2)c1 [Example 1.22, [4-(6-Chloro-quinolin-2-yl)-piperazin-1-yl]-(2-cyclopentyloxy-5-methanesulfonyl-phenyl)-methanone]
2 | 287 | CC(C)Oc1ccc(S(C)(=O)=O)cc1C(=O)N1CCN(c2cnc3ccccc3n2)CC1 [Example 1.24, (2-Isopropoxy-5-methanesulfonyl-phenyl)-(4-quinoxalin-2-yl-piperazin-1-yl)-methanone]
3 | 149 | CS(=O)(=O)c1ccc(OC2CCCC2)c(C(=O)N2CCN(c3cnc4ccccc4c3)CC2)c1 [Example 1.28, (2-Cyclopentyloxy-5-methanesulfonyl-phenyl)-(4-quinolin-3-yl-piperazin-1-yl)-methanone]
4 | 67 | CS(=O)(=O)c1ccc(OC2CCCC2)c(C(=O)N2CCN(c3cnc4ccccc4n3)CC2)c1 [Example 1.25, (2-Cyclopentyloxy-5-methanesulfonyl-phenyl)-(4-quinoxalin-2-yl-piperazin-1-yl)-methanone]
5 | 339 | CCOc1ccc2nc(N3CCN(C(=O)c4cc(S(C)(=O)=O)ccc4OC(C)C)CC3)sc2c1 [Example 1.15, [4-(6-Ethoxy-benzothiazol-2-yl)-piperazin-1-yl]-(2-isopropoxy-5-methanesulfonyl-phenyl)-methanone]
6 | 39 | C[C@H](Oc1ccc(S(C)(=O)=O)cc1C(=O)N1CCN(c2nc3ccc(Cl)cc3s2)CC1)C(F)(F)F [Example 1.40, [4-(6-Chloro-benzothiazol-2-yl)-piperazin-1-yl]-[5-methanesulfonyl-2-((S)-2,2,2-trifluoro-1methyl-ethoxy)-phenyl]-methanone]
7 | 158 | CC(C)Oc1ccc(S(C)(=O)=O)cc1C(=O)N1CCN(c2nc3c(O)cccc3s2)CC1 [Example 1.13, [4-(4-Hydroxy-benzothiazol-2-yl)-piperazin-1-yl]-(2-isopropoxy-5-methanesulfonyl-phenyl)-methanone]
8 | 230 | CS(=O)(=O)c1ccc(OCC2CC2)c(C(=O)N2CCN(c3nc4ccc(Cl)cc4s3)CC2)c1 [Example 1.39, [4-(6-Chloro-benzothiazol-2-yl)-piperazin-1-yl]-(2-cyclopropylmethoxy-5-methanesulfonyl-phenyl)-methanone]
9 | 55 | C[C@H](Oc1ccc(S(C)(=O)=O)cc1C(=O)N1CCN(c2nsc3ccccc23)CC1)C(F)(F)F [Example 1.33, (4-Benzo[d]isothiazol-3-yl-piperazin-1-yl)-[5-methanesulfonyl-2-((S)-2,2,2-trifluoro-1-methyl-ethoxy)-phenyl]-methanone]
10 | 218 | CC(C)Oc1ccc(S(C)(=O)=O)cc1C(=O)N1CCN(c2nc3cc(Cl)ccc3s2)CC1 [Example 1.14, [4-(5-Chloro-benzothiazol-2-yl)-piperazin-1-yl]-(2-isopropoxy-5-methanesulfonyl-phenyl)-methanone]
11 | 467 | O=C(c1cc([N+](=O)[O-])ccc1N1CCOCC1)N1CCN(c2nsc3ccccc23)CC1 [Example 1.31, (4-Benzo[d]isothiazol-3-yl-piperazin-1-yl)-(2-morpholin-4-yl-5-nitro-phenyl) -methanone]
12 | 500 | CC(C)Oc1ccc(S(C)(=O)=O)cc1C(=O)N1CCN(c2nsc3ccccc23)CC1 [Example 1.29, (4-Benzo [d]isothiazol-3-yl-piperazin-1-yl)-(2-isopropoxy-5-methanesulfonyl-phenyl) -methanone]

The next lines start with the compound.

Row | SMILES | IC50 [nM]
13 | O=C(c1cc([N+](=O)[O-])ccc1N1CCOCC1)N1CCN(c2nc3ccc(Cl)cc3s2)CC1 [Example 1.1, [4-(6-Chloro-benzothiazol-2-yl)-piperazin-1-yl]-(2-morpholin-4-yl-5-nitro-phenyl) -methanone] | 271
14 | Cc1nc2cc(N3CCN(C(=O)c4cc(S(C)(=O)=O)ccc4OCC(C)C)CC3)ccc2s1 [Example 1.17, (2-Isobutoxy-5-methanesulfonyl-phenyl)-[4-(2-methyl-benzothiazol-5-yl)-piperazin-1-yl]-methanone] | 440
15 | CC(C)Oc1ccc(S(C)(=O)=O)cc1C(=O)N1CCN(c2nc3ccc(Cl)cc3s2)CC1 [Example 1.2, [4-(6-Chloro-benzothiazol-2-yl)-piperazin-1-yl]-(2-isopropoxy-5-methanesulfonyl-phenyl)-methanone] | 398
16 | CC(C)Oc1ccc(S(C)(=O)=O)cc1C(=O)N1CCN(c2nc3c([N+](=O)[O-])cccc3s2)CC1 [Example 1.12, (2-Isopropoxy-5-methanesulfonyl-phenyl)-[4-(4-nitro-benzothiazol-2-yl)-piperazin-1-yl]-methanone] | 375
17 | CS(=O)(=O)c1ccc(OC2CCCC2)c(C(=O)N2CCN(c3nc4ccccc4o3)CC2)c1 [Example 1.4, (4-Benzoxazol-2-yl-piperazin-1-yl)-(2-cyclopentyloxy-5-methanesulfonyl-phenyl)-methanone] | 97
18 | CC(C)COc1ccc(S(C)(=O)=O)cc1C(=O)N1CCN(c2cnc3ccccc3n2)CC1 [Example 1.23, (2-Isobutoxy-5-methanesulfonyl-phenyl)-(4-quinoxalin-2-yl-piperazin-1-yl)-methanone] | 167
19 | COc1cccc2sc(N3CCN(C(=O)c4cc(S(C)(=O)=O)ccc4OC(C)C)CC3)nc12 [Example 1.11, (2-Isopropoxy-5-methanesulfonyl-phenyl)-[4-(4-methoxy-benzothiazol-2-yl)-piperazin-1-yl]-methanone] | 148
20 | CC(C)COc1ccc(S(C)(=O)=O)cc1C(=O)N1CCN(c2nc3ccccc3o2)CC1 [Example 1.5, (4-Benzoxazol-2-yl-piperazin-1-yl)-(2-isobutoxy-5-methanesulfonyl-phenyl)-methanone] | 144
21 | CC(C)COc1ccc(S(C)(=O)=O)cc1C(=O)N1CCN(c2ccc3ccccc3n2)CC1 [Example 1.19, (2-Isobutoxy-5-methanesulfonyl-phenyl)-(4-quinolin-2-yl-piperazin-1-yl)-methanone] | 78
22 | CC(C)Oc1ccc(S(C)(=O)=O)cc1C(=O)N1CCN(c2nc3ccc([N+](=O)[O-])cc3s2)CC1 [Example 1.9, (2-Isopropoxy-5-methanesulfonyl-phenyl)-[4-(6-nitro-benzothiazol-2-yl)-piperazin-1-yl]-methanone] | 206
23 | CC(C)COc1ccc(S(C)(=O)=O)cc1C(=O)N1CCN(c2cnc3ccccc3c2)CC1 [Example 1.27, (2-Isobutoxy-5-methanesulfonyl-phenyl)-(4-quinolin-3-yl-piperazin-1-yl)-methanone] | 82
24 | COc1ccc2nc(N3CCN(C(=O)c4cc(S(C)(=O)=O)ccc4OC(C)C)CC3)sc2c1 [Example 1.8, (2-Isopropoxy-5-methanesulfonyl-phenyl)-[4-(6-methoxy-benzothiazol-2-yl)-piperazin-1-yl]-methanone] | 174
